{
  "source": "paper PMC5840262",
  "about": "“Design, Synthesis and Evaluation of Branched RRWQWR-Based Peptides as Antibacterial Agents Against Clinically Relevant Gram-Positive and Gram-Negative Pathogens” (Frontiers in Microbiology, 2018)",
  "test_system": "ATCC reference strains",
  "assay": "Antibacterial activity against the ATCC reference strains, overall",
  "assay_type": "cell-based",
  "details": "against the ATCC reference strains of E. faecalis and P. aeruginosa, all strains together",
  "protocol": "We screened all five peptides against the ATCC reference strains and the clinical isolates according to Method M7-A7 of the National Committee for Clinical Laboratory Standards (CLSI, [2007]). The MIC50 and MBC values were determined using a broth microdilution and growth inhibition method previously reported by Leon-Calvijo et al. ([2015]), with some modifications (Wiegand et al., [2008]). Briefly, the MIC50 experiments comprised a liquid-inhibition growth assay in a sterile, untreated, 96-well flat-bottom tissue culture plate. […] The turbidity of the cultures was measured and adjusted spectrophotometrically to a McFarland standard of 0.5, and then diluted to a final concentration of 5 × 10^7 colony forming units (CFU) per well. […] Each concentration was evaluated in duplicate and each assay was performed in triplicate.\nWells containing Mueller Hilton broth with bacterial inoculum only served as bacterial-growth controls. […] The microplate was incubated for 24 h at 37°C, and growth inhibition was measured by monitoring the optical density at 620 nm (OD620). […]\nTo determine the MBC, an aliquot from each well of the MIC50 assay was spread onto Mueller Hilton agar. After 18 h at 37°C, the concentration that inhibited bacterial growth was determined. […]",
  "note": "Ends that are not written are not given here.",
  "data": [
    {"substance": "RRWQWR-NH2 [LfcinB (20–25), reference compound]", "values": [
      {"measurement": "MIC50", "value": "> 200", "unit": "µM"}
    ]}
  ]
}
